The subject of assay [1] is IL-1β production in hTHP-1 cells. The experiment in a line: hTHP-1 assay containing 10% fetal bovine serum. It is filed as cell-based, human. Here is the method: inhibition=100-100×[HCave−Readout/(HCave−LCave)] • 2. Fit the normalized data in a dose-response manner using XLfit, and calculate the compound concentration. Tables B1, B2, and B3 show the biological activity of compounds in hTHP-1 assay containing 2% fetal bovine serum. […] Key: <0.008 μM=“++++++”; ≥0.008 and <0.04 μM=“+++++”; ≥0.04 and <0.2 μM=“++++”; ≥0.2 and <1 μM=“+++”; ≥1 and <5 μM=“++”; ≥5 and <30 μM=“+”.

The test system of assay [2] is IL-1β production in PMA-differentiated THP-1 cells. The experiment in a line: IL-1β production in PMA-differentiated THP-1 cells stimulated with gramicidin (hTHP-1 assay, 2% fetal bovine serum; Procedures 1-3). It counts as cell-based, human. Conditions: hTHP-1 assay containing 2% fetal bovine serum. The essentials: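 IL-1β released into supernatants was read by HTRF after 2 h gramicidin (5 μM) challenge. Before challenge, compounds (3-fold dilutions, top 100 μM, 0.37% DMSO) were given 1 h on THP-1 cells differentiated with PMA (20 ng/ml, 16-18 h) and held in 2% FBS medium.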

The mark [3] stands for this setting: read-out: hTHP-1 IC50 in 10% FBS, hTHP-1 assay containing 10% fetal bovine serum, Table B4.
Setting [4] is: Homo sapiens, read-out: hTHP-1 IC50 in 10% FBS, hTHP-1 assay containing 10% fetal bovine serum, Table B4.
[5] abbreviates: Homo sapiens, THP-1, Table B3, gramicidin stimulation, IL-1β readout, read-out: hTHP-1 IC50.
Setting [6] is: Table B2, class symbols, read-out: IC50.

Where two headings read alike, the source gives them in different places.

For the molecule `CC(C)(O)c1csc(S(N)(=O)=NC(=O)Nc2c3c(cc4c2CCC4)CCC3)c1F` (single isomer, unassigned) [Example 880, (R) or (S)-3-fluoro-N′-((1,2,3,5,6,7-hexahydro-s-indacen-4-yl)carbamoyl)-4-(2-hydroxypropan-2-yl)thiophene-2-sulfonimidamide], the IC50 in assay [1] (setting [3]) is 40 to 200 nM.

As for `CC(C)(O)c1csc(S(N)(=O)=NC(=O)Nc2c3c(cc4c2CCC4)CCC3)c1F` (single isomer, unassigned) [Example 881, (S) or (R)-3-fluoro-N′-((1,2,3,5,6,7-hexahydro-s-indacen-4-yl)carbamoyl)-4-(2-hydroxypropan-2-yl)thiophene-2-sulfonimidamide], in assay [1] (setting [3]), the IC50 was 5000 to 30000 nM.

On to `CC(C)(O)c1csc(S(N)(=O)=NC(=O)Nc2c3c(cc4c2CC4)CCC3)c1F` (single isomer, unassigned) [Example 882, (R) or (S)-3-fluoro-4-(2-hydroxypropan-2-yl)-N′-((2,4,5,6-tetrahydro-1H-cyclobuta[f]inden-3-yl)carbamoyl)thiophene-2-sulfonimidamide], for which the IC50 in assay [1] (setting [3]) lay in the range of 8 to 40 nM.

As to `CC(C)(O)c1csc(S(N)(=O)=NC(=O)Nc2c3c(cc4c2CC4)CCC3)c1F` (single isomer, unassigned) [Example 883, (S) or (R)-3-fluoro-4-(2-hydroxypropan-2-yl)-N′-((2,4,5,6-tetrahvdro-1H-cyclobuta[f]inden-3-yl)carbamoyl)thiophene-2-sulfonimidamide], the IC50 in assay [1] (setting [3]) was in the range of 1000 to 5000 nM.

As to `CC(C)(O)c1csc(S(N)(=O)=NC(=O)Nc2c3c(cc4c2CCC4)CCC3)c1F` (centres unmarked) [Example 878, 3-Fluoro-N′-((1,2,3,5,6,7-hexahydro-s-indacen-4-yl)carbamoyl)-4-(2-hydroxypropan-2-yl)thiophene-2-sulfonimidamide], the IC50 in assay [1] (setting [4]) is 40 to 200 nM.

Turning to `CC(C)(O)c1csc(S(N)(=O)=NC(=O)Nc2c3c(cc4c2CC4)CCC3)c1F` (centres unmarked) [Example 879, 3-Fluoro-4-(2-hydroxypropan-2-yl)-N′-((2,4,5,6-tetrahydro-1H-cyclobuta[f]inden-3-yl)carbamoyl)thiophene-2-sulfonimidamide], the IC50 in assay [1] (setting [4]) lay in the range of 40 to 200 nM.

Regarding `C#CCCC1(CCC(=O)N(C)Cc2ccc([S@@](N)(=O)=NC(=O)Nc3c4c(cc5c3CCC5)CCC4)cc2)N=N1` [compound 771], in assay [2] (setting [5]), the IC50 is 200 to 1000 nM.

As for `CN1CCC(c2ccc(S(N)(=O)=NC(=O)Nc3c4c(cc5c3CCC5)CCC4)c(F)c2)C1` (centres unmarked) [compound 776, 2-Fluoro-N′-((1,2,3,5,6,7-hexahydro-s-indacen-4-yl)carbamoyl)-4-(1-methylpyrrolidin-3-yl)benzenesulfonimidamide], in assay [2] (setting [5]), the IC50 was in the range of 5000 to 30000 nM.

For the molecule “(S)- and (R)-3-Fluoro-5-((methylamino)methyl)-N′-((2,4,5,6-tetrahydro-1H-cyclobuta[f]inden-3-yl)carbamoyl)thiophene-2-sulfonimidamide [Example 670]”, the IC50 in assay [2] (setting [6]) was in the range of 40 to 200 nM.

Consider “(S)- and (R)-3-Fluoro-5-((methylamino)methyl)-N′-((2,4,5,6-tetrahydro-1H-cyclobuta[f]inden-3-yl)carbamoyl)thiophene-2-sulfonimidamide [Example 671]”, for which the IC50 in assay [2] (setting [6]) was 1000 to 5000 nM.

“N-(amino((R)-6-methoxy-6,7- dihydro-5H-pyrazolo[5,1- b][1,3]oxazin-3-yl)(oxo)-9,6- sulfaneylidene)-1,2,3,5,6,7- hexahydro-s-indacene-4-carboxamide [Example 472]”: the half-inhibitory concentration (IC50) in assay [2] (setting [6]) is 40 to 200 nM.

These data come from patent US20230051589A1, “COMPOUNDS AND COMPOSITIONS FOR TREATING CONDITIONS ASSOCIATED WITH NLRP ACTIVITY” (Novartis AG, priority 2018, published 2023).
